Source: patent US20240199555A1, “APPLICATIONS OF BIASED LIGANDS OF THE SEROTONIN 5-HT7 RECEPTOR FOR THE TREATMENT OF PAIN, MULTIPLE SCLEROSIS AND THE CONTROL OF THERMOREGULATION” (Centre National de la Recherche Scientifique, priority 2021, published 2024)

Tests used:
5-HT7R / β-arrestin2 = 5-HT7R / β-arrestin2 (Homo sapiens (Human), UniProt P34969); experiment: β-arrestin 2 BRET in HEK-293 cells transfected with 5-HT7R; format: cell-based; conditions: wild type 5-HT7R, intramolecular biosensor
5-HT7R / β-arrestin2, sequence (P34969 1-432): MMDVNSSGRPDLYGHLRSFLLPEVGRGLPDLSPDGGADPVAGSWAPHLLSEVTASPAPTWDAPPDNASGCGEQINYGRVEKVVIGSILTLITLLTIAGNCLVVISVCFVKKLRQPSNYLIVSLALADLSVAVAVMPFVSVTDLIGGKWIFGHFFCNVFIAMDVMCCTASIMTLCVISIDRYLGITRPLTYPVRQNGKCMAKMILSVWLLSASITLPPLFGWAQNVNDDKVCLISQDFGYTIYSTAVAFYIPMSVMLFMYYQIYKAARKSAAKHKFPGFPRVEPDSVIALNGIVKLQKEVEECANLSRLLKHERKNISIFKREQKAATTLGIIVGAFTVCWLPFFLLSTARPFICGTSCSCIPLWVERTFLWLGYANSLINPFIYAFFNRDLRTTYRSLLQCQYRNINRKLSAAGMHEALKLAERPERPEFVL
Experimental: FIG. 8: Serodolin-induced ERK phosphorylation is dependent on β-arrestin 2 recruitment. (A) HEK-293 or KO β-arrestin HEK-293 cells were transiently transfected with HA-5-HT7R and stimulated with 5-CT (10 μM), Serodolin (10 μM) or Vehicle (0.1% DMSO diluted in PBS solution) used as a control for 7 min. Representative blots of three independent experiments are illustrated. (B) Quantification of p-ERK and p-c-SRC were performed using Alphascreen technology. Data are means±SEM of values obtained in three independent experiments. (C) HEK-293 cells were transiently transfected with HA-h5-HT7R with β-arrestin2 BRET biosensor (Rluc-Arrestin-YPET), then incubated with increasing doses of 5-CT, or Serodolin (10^-11 to 10^-5 M). Ligand mediated BRET changes are expressed as induced BRET changes which were generated by subtracting at each point the signal of the cells incubated with PBS (without ligand). Data were fitted using non-linear regression using GraphPad Prism software. […]
The inventors then investigated whether the Serodolin-induced β-arrestin recruitement using BRET experiments. […] After transfection of 5-HT7R-RLuc and arrestin2-YFP used as a BRET pair, the inventors evaluated the ability of 5-HT7R ligands to recruit β-arrestin. […]

[1] = Pharmacokinetic study in plasma and brain; format: in vivo, C57BL/6 mice; conditions: 5 mg/kg, subcutaneous
Experimental: FIG. 20: Pharmacokinetic study of E55888 and Serodolin. Concentration-time profile of E55888 (reference agonist) and Serodolin in plasma (A) and brain (B) following subcutaneous injection of a unique dose 5 mg/kg of each compound in C57BL/6 mice. Data represent the mean concentration±SEM of n=4 each time point.
The pharmacokinetic study was undertaken to evaluate and compare the quantity of Serodolin and E55888 in plasma and brain samples from C57BL/6 mice (Janvier, Le Genest France) at several time points. Seven weeks old C57BL/6 mice (n=4 animals per group) received by subcutaneous injection a unique dose (5 mg/kg) of Serodolin or E55888 (U103013S, Achemblock). Control group received vehicle (solution of 20% DMSO and 5% Tween 80 diluted in NaCl). […] Blank vehicle mouse brains homogenates and plasma were used to established standard curves of Serodolin or E55888. […] Study samples, brains homogenates and plasma, were prepared for protein precipitation by adding 85 μL of acetonitrile+5-CT to 20 μL of samples. LC-HRMS analysis for PK studies were performed on a maXis Q-TOF mass spectrometer (Bruker, Bremen, Germany) coupled to an U3000 RSLC UHPLC system (Dionex, Germering, Germany). Separation was obtained using an Acquity UPLC BEH C18 column (2.1×50 mm; 1.7 μm) (Waters, Saint-Quentin-en-Yvelines, France) thermostated at 40° C. with a gradient of water (solvent A) and acetonitrile (solvent B), both acidified with 0.1% formic acid at 500 μL/min. […] The samples were randomized prior analysis; 1.25 μL were injected for plasma and 8 μL for brains. […] Area were integrated from extracted ion chromatograms (EIC) of [M+H]+ ions using QuantAnalysis 4.4 software (Bruker) with a tolerance of ±0.005 u.
The pharmacokinetics profile of both compounds were evaluated. The inventors used liquid chromatography tandem mass spectrometry (UPLC-MS/MS) method to perform PK study and measure Serodolin vs E55888 levels in vivo.

With `O=c1[nH]c2ccccc2n1CN1CCN(c2ccc(F)cc2)CC1` [Serodolin] the “BRET signal of RLuc-arrestin2-YPET biosensor” value (5-HT7R / β-arrestin2) was “concentration-dependent increase of BRET signal”, the “passage of the brain blood barrier” value [1] was “ability to pass the brain blood barrier” and the “time of maximum of detection” value ([1]; both in plasma and brain) was 15 to 30 min. The “maximum of detection in brain” value ([1]; brain) was 0.4 ± 0.8 µg/mL, the “maximum of detection in plasma” value ([1]; plasma) was 2.9 ± 0.8 µg/mL and the “time after which eliminated / undetectable” value ([1]; plasma and brain) was 240 min.
